Source: patent publication US20260191968A1, “PROTAC DEGRADERS OF MLLT1 AND/OR MLLT3” (DARK BLUE THERAPEUTICS LTD, priority 2024, published 2026)

Columns and labels:
MV4-11 cells = test: MV4-11 cellular proliferative assay, Assay Format B (CTG 2.0, 168 h); assay type: cell-based; conditions: Homo sapiens, 168 h (7 days), CTG 2.0, read-out: IC50 (MV4-11 cellular proliferative assay, Assay format B)
Procedure: MV4-11 cells at a confluency of ~50-80% was used for cell growth assay. 600 cells/well in a 384-well opaque cell culture plate (6007680; Perkin Elmer) were seeded in 40 μL of complete medium (IMDM+10% FBS+1X Penicillin-Streptomycin). Cells were incubated overnight at 37° C., 5% CO2. 10 mM DMSO stocks were prepared, cells were treated with 10 concentrations of test compounds starting from 1 uM or 100 nM, 3-fold dilution in 10 uL (5×concentration) of complete medium. Final DMSO concentration was 0.3%. Culture plates were centrifuged at 40×g, 30s. Cells were incubated with compounds for 168 h (7 days). After 7 days, 20 uL CTG 2.0 reagent (G9242; Promega) was added per well and luminescence reading was taken in Envision Xcite 2105 multimode plate reader. Data was analyzed in GraphPad Prism 10.0 and data was shown as % viability with respect to DMSO control and dose-response curves were generated using four parameter logistic regression. Assay quality was determined by z-factor calculation using positive and negative controls.

MLLT1 = target: T1, MLLT1 (Homo sapiens, UniProt Q03111); test: MLLT1 degradation assay in MV4-11 cells (JESS chemiluminescent detection), three concentrations, 24 h; assay type: cell-based; conditions: with respect to DMSO control
T1 construct: host or cells: MV4-11
T1 sequence (Q03111 1-559): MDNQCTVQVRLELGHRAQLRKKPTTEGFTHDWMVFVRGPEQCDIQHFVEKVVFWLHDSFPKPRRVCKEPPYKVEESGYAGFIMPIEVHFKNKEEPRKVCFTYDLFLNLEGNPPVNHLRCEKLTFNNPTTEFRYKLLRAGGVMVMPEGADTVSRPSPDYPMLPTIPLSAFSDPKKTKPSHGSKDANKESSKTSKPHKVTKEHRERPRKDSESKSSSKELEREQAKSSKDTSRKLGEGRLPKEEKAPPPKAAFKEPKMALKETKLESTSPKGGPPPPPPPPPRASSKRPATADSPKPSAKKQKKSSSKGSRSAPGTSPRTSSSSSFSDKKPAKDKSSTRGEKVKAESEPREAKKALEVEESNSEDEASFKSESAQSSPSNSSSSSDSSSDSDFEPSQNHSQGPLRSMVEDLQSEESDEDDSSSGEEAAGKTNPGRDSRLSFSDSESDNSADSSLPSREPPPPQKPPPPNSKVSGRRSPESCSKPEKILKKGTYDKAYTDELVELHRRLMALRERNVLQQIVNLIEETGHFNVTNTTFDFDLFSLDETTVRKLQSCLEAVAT
Summary of the method: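 MV4-11 cells treated 24 h at 37° C, 5% CO2 with 1000, 100 and 10 nM compound (0.1% DMSO final). MLLT1 quantified by automated capillary chemiluminescent immunodetection; band peak area expressed as % degradation relative to DMSO control.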

| SMILES | IC50 (MV4-11 cells) [nM] | MLLT1% Degradation @ 0.01 μM (MLLT1) | MLLT1% Degradation @ 0.1 μM (MLLT1) | MLLT1% Degradation @ 1 μM (MLLT1) |
| --- | --- | --- | --- | --- |
| C[C@@H]1CN(CC2CCN(c3cccc4c3CN(C3CCC(=O)NC3=O)C4=O)CC2)CCN1c1ccc(C(=O)Nc2cc3[nH]c([C@H]4CCCN4C)cc3cn2)cc1 (mixture of isomers) [Example 133, 4-((2R)-4-((1-(2-(2,6-dioxopiperidin-3-yl)-1-oxoisoindolin-4-yl)piperidin-4-yl)methyl)-2-methylpiperazin-1-yl)-N-(2-((R)-1-methylpyrrolidin-2-yl)-1H-pyrrolo[3,2-c]pyridin-6-yl)benzamide] | ≤ 100 | A (Category A: A ≥ 75% degradation) | A (Category A: A ≥ 75% degradation) | A (Category A: A ≥ 75% degradation) |
| CN1CCC[C@@H]1c1cc2cnc(NC(=O)c3ccc(CCCC4CCN(c5cccc6c5CN([C@@H]5CCC(=O)NC5=O)C6=O)CC4)cc3F)cc2[nH]1 (relative stereo) [Example 176, 4-(3-(1-(2-((rel-R)-2,6-dioxopiperidin-3-yl)-1-oxoisoindolin-4-yl)piperidin-4-yl)propyl)-2-fluoro-N-(2-((R)-1-methylpyrrolidin-2-yl)-1H-pyrrolo[3,2-c]pyridin-6-yl)benzamide] | ≤ 100 | A (Category A: A ≥ 75% degradation) | A (Category A: A ≥ 75% degradation) | A (Category A: A ≥ 75% degradation) |
| CN1CCC[C@@H]1c1cc2cnc(NC(=O)c3ccc(N4CCN(CCCC#Cc5cccc6c5CN(C5CCC(=O)NC5=O)C6=O)CC4)nc3)cc2[nH]1 (stereo partly drawn) [Example 149, 6-(4-(5-(2-(2,6-dioxopiperidin-3-yl)-1-oxoisoindolin-4-yl)pent-4-yn-1-yl)piperazin-1-yl)-N-(2-((R)-1-methylpyrrolidin-2-yl)-1H-pyrrolo[3,2-c]pyridin-6-yl)nicotinamide] | ≤ 100 | A (Category A: A ≥ 75% degradation) | A (Category A: A ≥ 75% degradation) | A (Category A: A ≥ 75% degradation) |
| CN1CCC[C@@H]1c1cc2cnc(NC(=O)c3ccc(N4CCN(CC5CCN(c6cccc7c6CN([C@@H]6CCC(=O)NC6=O)C7=O)CC5)CC4)cc3)cc2[nH]1 (relative stereo) [Example 118, 4-(4-((1-(2-((rel-R)-2,6-dioxopiperidin-3-yl)-1-oxoisoindolin-4-yl)piperidin-4-yl)methyl)piperazin-1-yl)-N-(2-((R)-1-methylpyrrolidin-2-yl)-1H-pyrrolo[3,2-c]pyridin-6-yl)benzamide] | ≤ 100 | C (Category C: 25% ≤ C < 50% degradation) | B (Category B: 50% ≤ B < 75% degradation) | B (Category B: 50% ≤ B < 75% degradation) |
| CN1CCC[C@@H]1c1cc2cnc(NC(=O)c3ccc(-c4cnn(CCCC5CCN(c6cccc(C(=O)N[C@H]7CCC(=O)NC7=O)n6)CC5)c4)cc3)cc2[nH]1 [Example 60, N—((S)-2,6-dioxopiperidin-3-yl)-6-(4-(3-(4-(4-((2-((R)-1-methylpyrrolidin-2-yl)-1H-pyrrolo[3,2-c]pyridin-6-yl)carbamoyl)phenyl)-1H-pyrazol-1-yl)propyl)piperidin-1-yl)picolinamide] | ≤ 100 | A (Category A: A ≥ 75% degradation) | A (Category A: A ≥ 75% degradation) | A (Category A: A ≥ 75% degradation) |
| CN1CCC[C@@H]1c1cc2cnc(NC(=O)c3ccc(N4CCN(CC5CCN(c6cccc7c6CN(C6CCC(=O)NC6=O)C7=O)CC5)CC4)cc3)cc2[nH]1 (mixture of isomers) [Example 116, 4-(4-((1-(2-(2,6-dioxopiperidin-3-yl)-1-oxoisoindolin-4-yl)piperidin-4-yl)methyl)piperazin-1-yl)-N-(2-((R)-1-methylpyrrolidin-2-yl)-1H-pyrrolo[3,2-c]pyridin-6-yl)benzamide] | ≤ 100 | B (Category B: 50% ≤ B < 75% degradation) | A (Category A: A ≥ 75% degradation) | A (Category A: A ≥ 75% degradation) |
| CN1CCC[C@@H]1c1cc2cnc(NC(=O)c3ccc(N4CCN(CC#Cc5cccc6c5CN(C5CCC(=O)NC5=O)C6=O)CC4)cc3F)cc2[nH]1 (stereo partly drawn) [Example 155, 4-(4-(3-(2-(2,6-dioxopiperidin-3-yl)-1-oxoisoindolin-4-yl)prop-2-yn-1-yl)piperazin-1-yl)-2-fluoro-N-(2-((R)-1-methylpyrrolidin-2-yl)-1H-pyrrolo[3,2-c]pyridin-6-yl)benzamide] | ≤ 100 | A (Category A: A ≥ 75% degradation) | A (Category A: A ≥ 75% degradation) | B (Category B: 50% ≤ B < 75% degradation) |
| CN1CCC[C@@H]1c1cc2cnc(NC(=O)c3ccc(CCCC#Cc4ccc(F)c5c4CN(C4CCC(=O)NC4=O)C5=O)cc3)cc2[nH]1 (stereo partly drawn) [Example 91, 4-(5-(2-(2,6-dioxopiperidin-3-yl)-7-fluoro-1-oxoisoindolin-4-yl)pent-4-yn-1-yl)-N-(2-((R)-1-methylpyrrolidin-2-yl)-1H-pyrrolo[3,2-c]pyridin-6-yl)benzamide] | ≤ 100 | A (Category A: A ≥ 75% degradation) | A (Category A: A ≥ 75% degradation) | A (Category A: A ≥ 75% degradation) |
| CN1CCC[C@@H]1c1cc2cnc(NC(=O)c3ccc(N4CCC(CN5CCN(c6cccc7c6CN(C6CCC(=O)NC6=O)C7=O)CC5)CC4)nc3)cc2[nH]1 (stereo partly drawn) [Example 168, 6-(4-((4-(2-(2,6-dioxopiperidin-3-yl)-1-oxoisoindolin-4-yl)piperazin-1-yl)methyl)piperidin-1-yl)-N-(2-((R)-1-methylpyrrolidin-2-yl)-1H-pyrrolo[3,2-c]pyridin-6-yl)nicotinamide] | ≤ 100 | A (Category A: A ≥ 75% degradation) | A (Category A: A ≥ 75% degradation) | A (Category A: A ≥ 75% degradation) |
| CN1CCC[C@@H]1c1cc2cnc(NC(=O)c3ccc(C4CCN(CC5CCN(c6cccc7c6CN(C6CCC(=O)NC6=O)C7=O)CC5)CC4)cc3)cc2[nH]1 (stereo partly drawn) [Example 167, 4-(1-((1-(2-(2,6-dioxopiperidin-3-yl)-1-oxoisoindolin-4-yl)piperidin-4-yl)methyl)piperidin-4-yl)-N-(2-((R)-1-methylpyrrolidin-2-yl)-1H-pyrrolo[3,2-c]pyridin-6-yl)benzamide] | ≤ 100 | A (Category A: A ≥ 75% degradation) | A (Category A: A ≥ 75% degradation) | A (Category A: A ≥ 75% degradation) |
| CN1CCC[C@@H]1c1cc2cnc(NC(=O)c3ccc(N4CCC(OC5CCN(c6cccc7c6CN(C6CCC(=O)NC6=O)C7=O)CC5)CC4)nc3)cc2[nH]1 (stereo partly drawn) [Example 145, 6-(4-((1-(2-(2,6-dioxopiperidin-3-yl)-1-oxoisoindolin-4-yl)piperidin-4-yl)oxy)piperidin-1-yl)-N-(2-((R)-1-methylpyrrolidin-2-yl)-1H-pyrrolo[3,2-c]pyridin-6-yl)nicotinamide] | ≤ 100 | A (Category A: A ≥ 75% degradation) | A (Category A: A ≥ 75% degradation) | A (Category A: A ≥ 75% degradation) |
